Measurements as given in patent publication US12195427B2, “MASP-2 inhibitors and methods of use” (priority 2018, dated 2025).

Columns and labels:
[1] = target: MASP-2 CCP2-SP (Homo sapiens (Human), UniProt O00187); assay: MASP-2 co-crystallization, X-ray crystallography and structure analysis (H-bonds, van der Waals contacts); set-up: van der Waals contact distance, MASP-2 HIS 483 atom CD2 / van der Waals contact distance, MASP-2 HIS 483 atom NE2 / van der Waals contact distance, SER 654 C to compound atom / van der Waals contact distance, SER 654 O to compound atom / van der Waals contact distance, TRP 655 C to compound atom / van der Waals contact distance, MASP-2 GLY 528 atom CA / van der Waals contact distance TRP 655 atom CZ3 / van der Waals contact distance TRP 655 atom N / van der Waals contact distance TRP 655 atom CE3 / van der Waals contact distance GLY 656 atom C / van der Waals contact distance GLY 656 atom CA / van der Waals contact distance GLY 656 atom O / van der Waals contact distance, MASP-2 TYR 607 atom CD1 / van der Waals contact distance, MASP-2 PRO 606 atom O / d(C3,CA1) / d(CA1,N1)2 / d(H4,O1) / d(H4,O2) / d(O1,O2) / d(CA1,O2) / d(CA6,O1) / d(CA6,O2) / d(CA1,C5) / d(O2,H3) / d(N2,C2) / d(CA5,N2) / d(N2,C4) / d(N2,C6) / d(N2,CA3) / d(N2,O3) / d(O4,H2): unit not given beside the values;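 on Ligand-pharmacophore element distance, pharmacophore element C2: distance from averaged pharmacophore element to bound ligand; missing value means element absent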;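 on Ligand-pharmacophore element distance, pharmacophore element C3: distance from averaged pharmacophore element to bound ligand; missing value means element absent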;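 on Ligand-pharmacophore element distance, pharmacophore element C4: distance from averaged pharmacophore element to bound ligand; missing value means element absent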;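 on Ligand-pharmacophore element distance, pharmacophore element C5: distance from averaged pharmacophore element to bound ligand; missing value means element absent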
MASP-2 CCP2-SP, sequence (O00187 445-686): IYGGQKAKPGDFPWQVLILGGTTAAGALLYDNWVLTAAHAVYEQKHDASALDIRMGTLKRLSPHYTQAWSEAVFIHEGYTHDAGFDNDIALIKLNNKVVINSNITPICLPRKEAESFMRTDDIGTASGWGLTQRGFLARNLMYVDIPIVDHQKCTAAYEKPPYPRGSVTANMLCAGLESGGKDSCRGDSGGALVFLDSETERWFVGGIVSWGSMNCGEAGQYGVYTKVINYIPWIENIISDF
MASP-2 CCP2-SP, sequence (O00187 364-432 partner): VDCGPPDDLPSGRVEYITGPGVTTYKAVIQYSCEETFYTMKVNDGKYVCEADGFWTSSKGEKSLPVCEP
Method in brief: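 Soaked crystals of recombinant CCP2-SP (E. coli) yield the structures, phased by molecular replacement on 1Q3X pieces. Hydrophobic or nonbonded contacts can also cover atom pairs that are potential hydrogen bonds.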

[2] = target: human α-thrombin (Homo sapiens (Human), UniProt P00734); assay: Enzymatic Assay for Thrombin (Boc-VPR-AMC); format: biochemical
[3] = target: MASP-2 (CCP1-CCP2-SP) (Homo sapiens (Human), UniProt O00187); assay: Enzymatic Assay for MASP-2 (fluorogenic substrate); format: biochemical
MASP-2 (CCP1-CCP2-SP), sequence (O00187 445-686): as the sequence (O00187 445-686) above

[4] = Table A5-1 pharmacophore: distance between elements, S2/S1 region
[5] = Table A5-2 pharmacophore distance, S3/S4 region
[6] = Table A7-1, between pharmacophore elements of the bound compound
[7] = Table A8-6, nearest protein atom in cell to the left

## C[C@H](NC(=O)[C@H](N)CCc1ccccc1)C(=O)NCc1ccc(C(=N)N)cc1 [compound 1024]
[1]; Table A1 (H-Bonds), ASP 627 OD1
  H-bond distance to MASP-2 ASP 627 atom OD1: 2.74
[1]; Table A1 (H-Bonds), GLY 656 N
  H-bond distance to MASP-2 GLY 656 atom N: 3.06
[1]; Table A1 (H-Bonds), SER 628 O
  H-bond distance to MASP-2 SER 628 atom O: 2.79
[1]; Table A1 (H-Bonds), SER 654 O
  H-bond distance to MASP-2 SER 654 atom O: 2.86
[1]; Table A1 (H-Bonds), SER 657 O
  H-bond distance to MASP-2 SER 657 atom O: 2.94
[1]; Table A2-1
  van der Waals contact distance, MASP-2 HIS 483 atom CD2: 3.39
[1]; Table A2-4
  van der Waals contact distance, MASP-2 TYR 607 atom CD1: 3.9
[1]; Table A2-7 continued: CYS 629 (CA)
  van der Waals contact distance, MASP-2 amino acid atom to compound atom: 3.75
[1]; Table A2-13, MASP-2 GLY 656 C
  van der Waals contact distance GLY 656 atom C: 3.53
[1]; Table A2-13, MASP-2 TRP 655 CZ3
  van der Waals contact distance TRP 655 atom CZ3: 3.86
[1]; Table A2-13, MASP-2 TRP 655 N
  van der Waals contact distance TRP 655 atom N: 3.78
[1]; Table A2-13, MASP-2 TRP 655 O
  van der Waals contact distance TRP 655 atom O: 3.59
[1]; Table A2-14, MASP-2 SER 657 C, columns c12-c13 (inferred)
  van der Waals contact distance SER 657 atom C: 3.77
[1]; Table A4-1, element C2
  Ligand-pharmacophore element distance, pharmacophore element C2: 0
[1]; Table A4-1, element C3
  Ligand-pharmacophore element distance, pharmacophore element C3: 0
[1]; Table A4-1, element C4
  Ligand-pharmacophore element distance, pharmacophore element C4: 0
[1]; Table A4-1, element C5
  Ligand-pharmacophore element distance, pharmacophore element C5: 0
[1]; Table A4-1, element C6
  Ligand-pharmacophore element distance, pharmacophore element C6: 0
[1]; Table A4-1, element C7
  Ligand-pharmacophore element distance, pharmacophore element C7: 0
[1]; Table A4-1, element CA1
  Ligand-pharmacophore element distance, pharmacophore element CA1: 0.4
[1]; Table A4-1, element CA2
  Ligand-pharmacophore element distance, pharmacophore element CA2: 0.33
[1]; Table A4-1, element CA3
  Ligand-pharmacophore element distance, pharmacophore element CA3: 0
[1]; Table A4-1, element CA4
  Ligand-pharmacophore element distance, pharmacophore element CA4: 0
[1]; Table A4-1, element CA5
  Ligand-pharmacophore element distance, pharmacophore element CA5: 0
[1]; Table A4-1, element CA6
  Ligand-pharmacophore element distance, pharmacophore element CA6: 0
[1]; Table A4-2, element H1
  Ligand-pharmacophore element distance, pharmacophore element H1: 0
[1]; Table A4-2, element H2
  Ligand-pharmacophore element distance, pharmacophore element H2: 0
[1]; Table A4-2, element H3
  Ligand-pharmacophore element distance, pharmacophore element H3: 4.93
[1]; Table A4-2, element H4
  Ligand-pharmacophore element distance, pharmacophore element H4: 3.21
[1]; Table A4-2, element N1
  Ligand-pharmacophore element distance, pharmacophore element N1: 1.74
[1]; Table A4-2, element N2
  Ligand-pharmacophore element distance, pharmacophore element N2: 0.59
[1]; Table A4-2, element O1
  Ligand-pharmacophore element distance, pharmacophore element O1: 0.4
[1]; Table A4-2, element O2
  Ligand-pharmacophore element distance, pharmacophore element O2: 0.4
[1]; Table A4-2, element O3
  Ligand-pharmacophore element distance, pharmacophore element O3: 0
[1]; Table A4-2, element O4
  Ligand-pharmacophore element distance, pharmacophore element O4: 0
[1]; [4]
  d(CA1,N1): 3.55
  d(CA1,O1): 4.37
  d(CA1,O2): 4.23
  d(H4,O1): 3.99
  d(H4,O2): 3.27
  d(O1,O2): 3.23
[1]; [5]
  d(N2,CA2): 6.19
  d(O2,H3): 5.45
  d(O2,N2): 2.78
[1]; Table A6-1 pharmacophore angle
  a(CA1, O1, O2): 109.78
  a(O1, O2, H4): 128.26
[1]; Table A6-1 pharmacophore angle, all compounds with protonatable center N1 except Methyl-amino-pyridine
  A(N1, CA1, O1) a): 163.32
[1]; Table A6-2 pharmacophore angle
  a(O1, O2, H3): 151.79
  a(O1, O2, N2): 136.56
  a(O2, N2, CA2): 154.55
[1]; [6]
  Pharmacophore torsion angle a(H4, O1, O2, H3): 44.69
  Pharmacophore torsion angle a(H4, O1, O2, N2): 125.09
  Pharmacophore torsion angle a(N1, CA1, O2, H4): −97.21
  Pharmacophore torsion angle a(O1, H4, O2, CA1): −63.40
[1]; Table A7-2, between pharmacophore elements of the bound compound
  Pharmacophore torsion angle a(O1, O2, N2, CA2): 139.71
[1]; Table A8-6, 6th residue column, nearest protein atom in cell to the left
  Pharmacophore protein distance to MET_658 (first MET_658 column): 1.94
[1]; Table A8-6, 9th residue column, nearest protein atom in cell to the left
  Pharmacophore protein distance to MET_658 (second MET_658 column): 3.26
[1]; [7]
  Pharmacophore protein distance to GLY_528: 3.60
  Pharmacophore protein distance to PHE_529: 3.20
  Pharmacophore protein distance to PRO_608: 3.95
  Pharmacophore protein distance to SER_611: 2.54
[1]; Table A8-6, pharmacophore elements C6, CA3, O3, H1, nearest protein atom in cell to the left
  Pharmacophore protein distance to TRP_655: 3.53
[2]
  Ki: < 500 nM
[3]
  Ki: < 500 nM
